Consider 1 compound from patent US12527831B2, “Skin care compositions comprising synergistic blend of sacred lotus and tea plant or sacred lotus and German Chamomile and cosmetic applications thereof” (ISP INVESTMENTS LLC, priority 2019, dated 2026).

The subject of this test is IL-1α. As to the kind of experiment: Inhibition of IL-1α induced by SDS in cultured epidermal keratinocytes (ELISA). In kind it is cell-based. The conditions noted are these: Homo sapiens, Keratinocyte; anti-inflammatory benchmark, HEK; read-out: IC50 in inhibiting SDS-induced IL-1α. On the procedure: Normal human adult epidermal keratinocytes (HEK) and all cell culture supplies were obtained from Life Technologies Co. (Carlsbad, CA, USA). The cells were grown and then maintained in keratinocyte basal medium 154 ([…]) with added human keratinocyte growth supplements (HKGS) at 37° C. in an atmosphere of 5% CO2 and used between passages 2 to 4. For the experiments, HEK cells were trypsinized, seeded in 96-well plates, and grown to 80% confluence. Specific concentrations of SDS were used for induction of chemokines and cytokines in the cultured HEK cells. IL-1α was induced with 25 μg/mL SDS. The cells were exposed for 16 hours to either SDS alone, or in combination with test articles at various concentrations in triplicates. After incubation, HEK cell supernatants were collected, and levels of interleukins were quantified using Quantikine® ELISA kits from R&D Systems Inc. IL-1α was quantified with catalogue number SLA50 kit. Percent (%) inhibition of IL-1α by the test articles were calculated by comparing to controls from non-SDS-induced cells considered as 0% and from SDS-induced cells considered as 100%. LDH assay using CytoscanTM LDH Assay kit (G-Biosciences Cat. No. 786-324) was performed on all HEK culture supernatants to make sure all tested concentrations had no cytotoxicity, and Kit-supplied lysis buffer was used as positive control.
Background: An ELISA detects its analyte on a solid surface through an enzyme-linked reagent.

In general, IC50 refers to the concentration needed to halve the response being measured. For the compound `CC(=O)Oc1ccccc1C(=O)O` [Aspirin], the IC50 is 230 µg/mL.
